Target: T1, HDM2 (Homo sapiens, UniProt Q00987)
T1 construct: Recombinant HDM2 (1.5 μg per well) in TBS-BSA buffer
Assay: Fluorescence polarisation competitive HDM2 binding assay
Details: fluorescence polarisation format; Table 1; read-out: IC50 In vitro competitive HDM2 binding assay
Description: This was carried out using a 96-well microtiter plate (Costar) format. Recombinant HDM2 (1.5 μg per well) in TBS-BSA buffer (50 mM Tris pH 7.4, 150 mM NaCl, and 0.1% BSA) was incubated for 5 min at room temperature in the presence of serially diluted test compound (in TBS-BSA buffer with a final concentration of 5% DMSO). Fluorescently labelled p53-derived peptide (fluorescein-[…]NH2, 0.2 μM) was added to each well and the plate was incubated at room temperature for 45 min. The fluorescence polarisation (excitation 485 nm, emission 520 nm) of the peptide was measured. IC50 values were calculated from dose-response curves.
The fluorescence polarisation competitive HDM2 binding assay described in Example 3 was used. Furthermore, the anti-proliferative potency of the compounds against three human tumour cell lines with different genetic make-up was also determined. […] The cell lines used were as follows: AGS, gastric adenocarcinoma, wild-type p53; H1299, large cell lung carcinoma, p53 null, low HDM2; SJSA-1, primitive multipotential bone sarcoma, wild-type p53, overexpressed HDM2.

T1 sequence (Q00987 whole entry): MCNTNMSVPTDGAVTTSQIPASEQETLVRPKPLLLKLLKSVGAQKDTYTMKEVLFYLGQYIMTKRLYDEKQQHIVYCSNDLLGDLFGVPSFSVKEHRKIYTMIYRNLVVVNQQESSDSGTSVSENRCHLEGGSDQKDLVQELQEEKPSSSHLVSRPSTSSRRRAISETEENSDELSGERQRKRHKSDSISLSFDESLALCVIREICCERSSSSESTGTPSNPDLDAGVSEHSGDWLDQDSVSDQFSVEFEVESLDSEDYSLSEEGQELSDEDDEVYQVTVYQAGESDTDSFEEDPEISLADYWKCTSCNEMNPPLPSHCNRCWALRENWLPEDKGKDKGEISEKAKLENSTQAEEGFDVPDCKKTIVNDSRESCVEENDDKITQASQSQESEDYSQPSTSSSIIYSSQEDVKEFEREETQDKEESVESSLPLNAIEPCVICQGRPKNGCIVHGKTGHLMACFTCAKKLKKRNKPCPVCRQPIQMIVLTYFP

| IC50 [µM] | SMILES |
| --- | --- |
| 409 ± 84 | O=[N+]([O-])c1cc(S(=O)(=O)Nc2cccc(C(F)(F)F)c2)sc1Cl [Compound 1, 5-Chloro-4-nitrothiophene-2-sulfonic acid (3-trifluoromethylphenyl)amide] |
| 407 | O=S(=O)(Nc1cc(C(F)(F)F)cc(C(F)(F)F)c1)c1cc(Br)c(Br)s1 [Compound 8, 4,5-Dibromothiophene-2-sulfonic acid (3,5-bis-trifluoromethylphenyl)amide] |
| 102 ± 13 | O=S(=O)(Nc1ccc(C(F)(F)F)cc1)c1ccc(Cl)s1 [Compound 9, 5-Chlorothiophene-2-sulfonic acid (4-trifluoromethylphenyl)amide] |
| 320 | O=S(=O)(Nc1ccc(Cl)cc1)c1ccc(Cl)s1 [Compound 10, 5-Chlorothiophene-2-sulfonic acid (4-chlorophenyl)amide] |
| 435 ± 76 | O=S(=O)(Nc1cc(C(F)(F)F)cc(C(F)(F)F)c1)c1ccc(Cl)s1 [Compound 11, 5-Chlorothiophene-2-sulfonic acid (3,5-bis-trifluoromethylphenyl)amide] |
| 374 ± 12 | CSc1ncc(-c2ccc(S(=O)(=O)Nc3cc(Cl)cc(Cl)c3)s2)cn1 [Compound 12, 5-(2-Methylsulfanyl-pyrimidin-5-yl)-thiophene-2-sulfonic acid (3,5-dichlorophenyl)-amide] |
| 494 | O=S(=O)(Nc1ccc(C(F)(F)F)cc1)c1ccc(-c2ncco2)cc1 [Compound 13, 4-Oxazol-2-yl-N-(4-trifluoromethylphenyl)benzenesulfonamide] |
| 448 ± 55 | O=S(=O)(Nc1cc(C(F)(F)F)cc(C(F)(F)F)c1)c1ccc(-c2ncco2)cc1 [Compound 14, N-(3,5-Bis-trifluoromethylphenyl)-4-oxazol-2-yl-benzenesulfonamide] |
| 218 ± 15 | O=S(=O)(Nc1ccc(C(F)(F)F)cc1)c1cc(Br)c(Cl)s1 [Compound 15, 4-Bromo-5-chlorothiophene-2-sulfonic acid (4-trifluoromethylphenyl)amide] |
| 290 ± 54 | O=S(=O)(Nc1ccc(Cl)cc1)c1ccc(Br)s1 [Compound 16, 5-Bromothiophene-2-sulfonic acid (4-chlorophenyl)amide] |
| 291 | O=S(=O)(Nc1cc(Cl)cc(Cl)c1)c1ccc(Br)s1 [Compound 17, 5-Bromothiophene-2-sulfonic acid (3,5-dichlorophenyl)amide] |
| 172 ± 21 | O=S(=O)(Nc1cc(C(F)(F)F)cc(C(F)(F)F)c1)c1ccc(Br)s1 [Compound 18, 5-Bromothiophene-2-sulfonic acid (3,5-bis-trifluoromethylphenyl)amide] |
| 295 ± 45 | O=[N+]([O-])c1cccc(S(=O)(=O)Nc2ccc(Cl)cc2)c1 [Compound 19, N-(4-Chlorophenyl)-3-nitrobenzenesulfonamide] |
| 482 ± 26 | O=[N+]([O-])c1cccc(S(=O)(=O)Nc2ccc(C(F)(F)F)cc2)c1 [Compound 20, 3-Nitro-N-(4-trifluoromethylphenyl)benzenesulfonamide] |
| 209 ± 38 | O=[N+]([O-])c1cccc(S(=O)(=O)Nc2cc(C(F)(F)F)cc(C(F)(F)F)c2)c1 [Compound 21, N-(3,5-Bis-trifluoromethylphenyl)-3-nitrobenzenesulfonamide] |
| 441 ± 69 | O=[N+]([O-])c1cccc(S(=O)(=O)Nc2ccc(Cl)cc2Cl)c1 [Compound 22, N-(2,4-Dichlorophenyl)-3-nitrobenzenesulfonamide] |
| 146 ± 5 | O=S(=O)(Nc1ccc(C(F)(F)F)cc1)c1ccc(S(=O)(=O)c2ccccc2)s1 [Compound 23, 5-Benzenesulfonylthiophene-2-sulfonic acid (4-trifluoromethylphenyl)-amide] |
| 243 ± 59 | O=S(=O)(Nc1ccc(Cl)cc1)c1ccc(S(=O)(=O)c2ccccc2)s1 [Compound 24, 5-Benzenesulfonylthiophene-2-sulfonic acid (4-chlorophenyl)amide] |
| 288 ± 39 | O=S(=O)(Nc1cc(Cl)cc(Cl)c1)c1ccc(S(=O)(=O)c2ccccc2)s1 [Compound 25, 5-Benzenesulfonylthiophene-2-sulfonic acid (3,5-dichlorophenyl)amide] |

From patent US20050215548A1 (Cyclacel Limited, priority 2002, published 2005)
